Data on two molecules can be found in patent publication US9908848B2, “Amide derivatives of lactam based N-acylethanolamine acid amidase (NAAA) inhibitors” (The Regents of the University of California, priority 2013, dated 2018).

Each structure is given as a SMILES string.

One assay concerns the target T1, r-NAAA (Rattus norvegicus, UniProt Q5KTC7).
T1 construct: Lysosomal NAAA protein preparation was obtained by homogenizing male Sprague-Dawley rat lungs; tissue Charles River; host or cells: male Sprague-Dawley rat lung, soluble lysosomal fraction
T1 sequence (Q5KTC7 34-362): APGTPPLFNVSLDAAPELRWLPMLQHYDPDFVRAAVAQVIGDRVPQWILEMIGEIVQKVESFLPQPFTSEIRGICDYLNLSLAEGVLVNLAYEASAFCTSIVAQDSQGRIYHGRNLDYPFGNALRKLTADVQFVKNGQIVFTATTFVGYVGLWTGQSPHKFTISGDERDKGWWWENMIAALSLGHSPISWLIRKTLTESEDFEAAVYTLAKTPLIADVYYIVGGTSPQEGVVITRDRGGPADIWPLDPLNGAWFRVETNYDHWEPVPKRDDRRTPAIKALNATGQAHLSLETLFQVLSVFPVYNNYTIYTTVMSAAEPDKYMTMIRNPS
The experiment in a line: UPLC/MS r-NAAA assay. The note with it: rat lung lysosomal NAAA preparation. In kind it is biochemical. The protocol: Lysosomal NAAA protein preparation was obtained by homogenizing male Sprague-Dawley rat lungs (Charles River) in 20 mM Tris-HCl buffer pH 7.4 containing 0.32M sucrose. Samples were centrifuged at 800×g for 15 min at 4° C. Supernatants were centrifuged at 12,000×g for 30 min at 4° C. Pellets were then resuspended in PBS pH 7.4 and subjected to a freeze/thaw cycle at −80° C. The suspension was finally centrifuged at 105,000 g for 1 h at 4° C. The supernatant was used in enzymatic assays.
NAAA preparations were pre-incubated with various concentrations of test compounds or vehicle control in 100 mM NaH2PO4/Citrate buffer, 1% Triton-X, 3 mM DTT (pH 4.5) for 30 min at 37° C. Samples were incubated with heptadecenoylethanolamide (50 μM, Avanti Polar Lipids) at 37° C. for 30 min. The reaction was terminated by addition of cold methanol containing heptadecanoic acid (NuCheck Prep) as internal standard. Samples were analyzed by UPLC/MS (Acquity, Waters). Heptadecenoic and heptadecanoic acids were eluted on an Acquity UPLC BEH C18 column (50 mm length, 2.1 mm i.d., 1.7 μm pore size, Waters) isocratically at 0.5 mL/min for 1.5 min with a solvent mixture of 95% methanol and 5% H2O, both containing 0.25% Acetic Acid and 5.0 mM ammonium acetate. The column temperature was 40° C. Electrospray ionization was in the negative mode, capillary voltage was 0.5 kV, cone voltage was […], desolvation temperature was 500° C. N2 was used as drying gas at a flow rate of 1000 L/hour and a temperature of 500° C. The [M−H]^− ion was monitored in the selected-ion monitoring mode (m/z values: heptadecenoic acid 267.37, heptadecanoic acid 269.37). Calibration curves were generated using commercial heptadecenoic acid (NuCheck Prep) Inhibition of NAAA activity was calculated as reduction of heptadecenoic acid in the samples compared to vehicle controls. IC50 values were calculated by non-linear regression analysis of log [concentration]/inhibition curves using GraphPad Prism 5 (GraphPad Software Inc., CA—USA) applying a standard slope curve fitting.

Another assay deals with T2, human NAAA (Homo sapiens, UniProt Q02083).
T2 construct: made in house; host or cells: HEK293 cells, stably transfected; soluble fraction after freeze/thaw
T2 sequence (Q02083 29-359): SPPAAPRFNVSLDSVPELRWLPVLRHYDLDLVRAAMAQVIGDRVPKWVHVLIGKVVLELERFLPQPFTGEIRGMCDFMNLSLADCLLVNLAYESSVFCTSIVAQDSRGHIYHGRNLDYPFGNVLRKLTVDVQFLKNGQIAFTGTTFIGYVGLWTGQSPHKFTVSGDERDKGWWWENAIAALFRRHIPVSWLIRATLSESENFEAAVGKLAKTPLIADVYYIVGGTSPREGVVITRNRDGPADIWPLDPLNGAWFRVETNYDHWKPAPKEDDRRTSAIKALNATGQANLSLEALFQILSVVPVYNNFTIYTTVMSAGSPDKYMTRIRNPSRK
Briefly: Fluorogenic h-NAAA assay. Format: biochemical. The following applies: recombinant HEK-hNAAA preparation. The protocol: Hek293 cells stably transfected with the human NAAA coding sequence cloned from a human spleen cDNA library were used as enzyme source. Recombinant HEK-hNAAA pellets were resuspended in homogenizing buffer, and sonicated. Samples were centrifuged at 800×g for 15 min at 4° C. and the supernatants were ultracentrifuged at 12,000×g for 30 min at 4° C. The pellets were resuspended in PBS pH 7.4 on ice and subjected to a freeze/thaw cycle at −80° C. (two freeze/thaw cycles at −80° C. for Examples 34-37). The suspension was finally centrifuged at 105,000×g for 1 h at 4° C. Protein concentration was measured and samples stored at −80° C. until use.
The assay was run in Optiplate 96-wells black plates, in a total reaction volume of 200 μL. NAAA protein preparation (4.0 μg for Examples except 34-37, which were 20.0 μg) was pre-incubated for 10 min with various concentrations of test compounds or vehicle control (5% DMSO) in 100 mM citrate/phosphate buffer (pH 4.5) containing 3.0 mM DTT, 0.1% Triton X-100, 0.05% BSA, 150 mM NaCl. N-(4-methyl-2-oxo-chromen-7-yl)-hexadecanamide was used as a substrate (5.0 μM) and the reaction carried over for 30 min at 37° C. The samples were then read in a Perkin Elmer Envision plate reader using an excitation wavelength of 360 nm and emission 460 nm. IC50 values were calculated by non-linear regression analysis of log [concentration]/inhibition curves using GraphPad Prism 5 (GraphPad Software Inc., CA—USA) applying a standard slope curve fitting.

On to `CCCCCCCCC(=O)N[C@H]1CNC1=O` [Example 3, N-[(3S)-2-Oxoazetidin-3-yl]-nonanamide], for which the IC50 at r-NAAA amounted to 0.24 µM; at human NAAA, 0.108 µM.

As to `O=C(CCCCCCc1ccccc1)N[C@H]1CNC1=O` [Example 7, 7-Phenyl-N-[(3S)-2-Oxoazetidin-3-yl]-heptanamide], the IC50 was determined as 2.1 µM on r-NAAA and 0.334 µM at human NAAA.

Usually IC50 stands for the point on the concentration scale where inhibition reaches its midpoint.
